Experimental data: paper PMC7477582, “Context dependent effects of ascorbic acid treatment in TET2 mutant myeloid neoplasia” (Communications Biology, 2020)

Target: T1, TET2 catalytic domain (TET2CD) (Homo sapiens, UniProt Q6N021, DEL1481-1843)
T1 construct: GST-TET2CD (1099–1936 Del-insert), expressed in E. coli; also GST tag free TET2CD
Assay: SPR (Biacore […]), GST-TET2CD captured by anti-GST on CM5 chip; supported by Kd […] on 5mC-DNA-captured TET2CD and 5hmC ELISA EC50 […]
Format: binding

`O=C1O[C@H]([C@@H](O)CO)C(O)=C1O` [AA, Ascorbic acid] showed a Kd of 9.1 ± 2.3 µM.
